“And” between values parts separate entries of the source, which are not always exact repeats. Equal entries are not always repeated. Where two headings read alike, the source gives them in different places.
How the values were obtained:
[1] = target: T1, AbaR (Acinetobacter nosocomialis, UniProt A0A0N8YGA2); assay: AbaR agonism reporter gene; assay type: cell-based, Acinetobacter baumannii; conditions: for Activation [%]: AHLs at 100 µM, normalized to (R)-OH-dDHL at 100 µM (set to 100%), error ≤ ±10%; for EC50: EC50, AHLs over 200 pM – 200 µM; for AbaR agonism (in words): 100 µM
[2] = target: T1, AbaR; conditions: identical A. baumannii reporter strain; ref 43 (Garner et al.); cited from earlier work
[3] = test system: LasR; conditions: cited from earlier work
[4] = test system: A. baumannii (ΔabaI); assay: A. baumannii motility assay on soft agar; assay type: cell-based, Acinetobacter baumannii; conditions: for concentration preventing migration (comparable to ΔabaI mutant): (R)-OH-dDHL supplemented 0.3% soft agar; for IC50: Acinetobacter baumannii, read-out: IC50 value, motility inhibition
[5] = test system: A. baumannii (ΔabaI); assay: A. baumannii biofilm assay; assay type: cell-based, Acinetobacter baumannii; conditions: AHL at 100 µM, crystal violet, 24 h; for inhibition of biofilm formation (in words): biofilm recovery with (R)-OH-dDHL; for reduction of biofilm recovery: (R)-OH-dDHL added
[6] = target: T1, AbaR; assay: AbaR antagonism reporter gene; assay type: cell-based, Acinetobacter baumannii; conditions: for AbaR antagonistic activity (in words): primary screening data
[7] = test system: wild-type A. baumannii; assay: A. baumannii biofilm assay; assay type: cell-based; conditions: Acinetobacter baumannii, read-out: inhibition of biofilm formation
[8] = AHLs over 10 nM – 100 µM against (R)-OH-dDHL at 0.70 µM

T1 sequence (A0A0N8YGA2 whole entry): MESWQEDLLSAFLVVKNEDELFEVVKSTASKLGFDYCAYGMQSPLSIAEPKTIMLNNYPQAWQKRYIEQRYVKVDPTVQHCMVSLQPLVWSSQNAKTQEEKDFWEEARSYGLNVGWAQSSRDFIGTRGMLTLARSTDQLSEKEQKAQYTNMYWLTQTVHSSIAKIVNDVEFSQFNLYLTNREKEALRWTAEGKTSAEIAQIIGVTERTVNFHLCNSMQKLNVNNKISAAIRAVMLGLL

CCCCCCCCC[C@@H](O)CC(=O)N[C@H]1CCOC1=O [(R)-OH-dDHL, N-(3’-hydroxydodecanoyl)-L-HL, reference compound]
Activation [%] [1]: 100% | EC50 [1]: 0.7 µM and 0.699 µM | fold more active than (S)-OH-dDHL (AbaR activation) ([1]; from EC50 values): ~ 40 fold | EC50 [2]: 0.67 µM

CCCCCCCCC[C@H](O)CC(=O)N[C@H]1CCOC1=O [(S)-OH-dDHL, N-(3’-hydroxydodecanoyl)-L-HL]
Activation [%] [1]: 90% | EC50 [1]: 29 µM and 28.9 µM | EC50 [2]: 0.82 µM

CCCCCC(=O)CC(=O)N[C@H]1CCOC1=O [Compound 1, 3-oxo-octanoyl-HL]
LasR inhibition [3]: 50% | IC50 ([3]; read-out: IC50 (LasR)): 0.11 µM | concentration preventing migration (comparable to ΔabaI mutant) [4]: less than 20 µM | AbaR agonism (in words) [1]: limited AbaR agonism | inhibition of biofilm formation (in words) [5]: inhibit biofilm formation to significant levels | IC50 [6]: 2.91 µM | inhibition at 100 µM [6]: 73%

CCCCCCCCCC(=O)CC(=O)N[C@H]1CCOC1=O [Compound 2]
Activation [%] [1]: 62% | EC50 [1]: 7.57 µM

CCCCCCC(=O)N[C@H]1CCOC1=O [Compound 4, heptanoyl-HL]
IC50 [6]: 13.7 µM | inhibition at 100 µM [6]: 75%

O=C(Cc1ccc(Br)cc1)N[C@H]1CCOC1=O [Compound 8, 4-bromo PHL]
IC50 [6]: 7.83 µM | inhibition at 100 µM [6]: 71%

CCCCCCCC(=O)NC1CCOC1=O (stereo not drawn) [Compound A3, octanoyl-HL]
Inhibition [%] ([6]; AHLs at 100 µM against (R)-OH-dDHL at 0.70 µM, error ≤ ±10%): 60%

CCCCCCCCCCCC(=O)NC1CCOC1=O (stereo not drawn) [Compound A5, dodecanoyl HL]
AbaR agonism (in words) [1]: no agonistic activity

CCCCCCCCCC(=O)NC1CCOC1=O (stereo not drawn) [Compound A7, decanoyl-HL]
AbaR agonism (in words) [1]: limited AbaR agonism | Activation [%] [1]: 3%

CCCCCCCCCCCCCC(=O)NC1CCOC1=O (stereo not drawn) [Compound A8, tetradecanoyl-HL]
AbaR agonism (in words) [1]: limited AbaR agonism | Activation [%] [1]: 9%

O=C(CCc1ccccc1)N[C@H]1CCOC1=O [Compound B10, phenylpropanoyl HL]
IC50 [6]: 11 µM | inhibition at 100 µM [6]: 72%

O=C(Cc1ccc(F)cc1)N[C@H]1CCOC1=O [Compound C2]
IC50 [6, 8]: > 25 µM

O=C(Cc1ccc(Cl)cc1)N[C@H]1CCOC1=O [Compound C5]
inhibition at 100 µM [6]: 78% | IC50 [6, 8]: 16.7 µM

O=C(Cc1cccc(Cl)c1)N[C@H]1CCOC1=O [Compound C6, 3-chloro PHL]
IC50 [4]: ~40 µM | IC50 [6]: 5.47 µM | inhibition at 100 µM [6]: 83%

O=C(Cc1ccccc1Cl)N[C@H]1CCOC1=O [Compound C7]
inhibition at 100 µM [6]: 83% | IC50 [6, 8]: 18.5 µM

O=C(Cc1cccc(Br)c1)N[C@H]1CCOC1=O [Compound C8, 3-bromo PHL]
concentration preventing migration (comparable to ΔabaI mutant) [4]: less than 20 µM | IC50 [4]: ~7 µM | inhibition at 100 µM [7]: ~40% | reduction of biofilm recovery [5]: ~ 40% | inhibition of biofilm formation (in words) [5]: inhibit biofilm formation to significant levels | IC50 [6]: 5.06 µM | inhibition at 100 µM [6]: 90% | AbaR antagonistic activity (in words) [6]: moderately to strongly inhibitory

O=C(Cc1ccccc1Br)N[C@H]1CCOC1=O [Compound C9]
IC50 [6]: 17.5 µM | inhibition at 100 µM [6]: 97% | AbaR antagonistic activity (in words) [6]: moderately to strongly inhibitory

O=C(Cc1ccc(I)cc1)N[C@H]1CCOC1=O [Compound C10, 4-iodo PHL]
IC50 [4]: ~70 µM | inhibition at 100 µM [7]: ~40% | reduction of biofilm recovery [5]: ~ 40% | inhibition of biofilm formation (in words) [5]: inhibit biofilm formation to significant levels | IC50 [6]: 7.06 µM | inhibition at 100 µM [6]: 91%

O=C(Cc1cccc(I)c1)N[C@H]1CCOC1=O [Compound C11, 3-iodo PHL]
concentration preventing migration (comparable to ΔabaI mutant) [4]: less than 20 µM | IC50 [4]: ~15 µM | IC50 [6]: 2.32 µM | inhibition at 100 µM [6]: 91%

O=C(Cc1ccccc1I)N[C@H]1CCOC1=O [Compound C12, 2-iodo-PHL]
IC50 [4]: ~40 µM | IC50 [6]: 6.13 µM | inhibition at 100 µM [6]: 80%

O=C(Cc1cccc([N+](=O)[O-])c1)N[C@H]1CCOC1=O [Compound C14, 3-nitro PHL]
IC50 [4]: ~70 µM | IC50 [6]: 8 µM | inhibition at 100 µM [6]: 70%
